Measured values reported in patent US20080268445A1, “Ant2 Conditional Knockout Mouse and Methods” (Emory University, priority 2002, published 2008).
Entries after “also recorded” stand apart in the source; their conditions may differ. *1 amine or outer side, *2 acyl side, *3 side chain or, on linkers, in order; H or OH if unused. Where a SMILES comes first, the peptide text is derived from it. Bridges are numbered along the chain shown (N, C = ends). Roman numbers before positions name the chains, in order. [ ]: non-standard residue; d: D form. Actinocin(9to1) = Cc1c2oc3c(C)ccc(C(=O)[*:1])c3nc-2c(C(=O)[*:2])c(N)c1=O; NMeV = CN[C@H](C(=O)O)C(C)C; Sar = CNCC(=O)O

Tests used:
[1] = test system: mtPTP; experiment: Ca++-activation of the mtPTP in liver mitochondria, irreversible release of TPP+; type: biochemical, mouse
Procedure: The mitochondria were energized with succinate in the presence of TPP^+. TPP^+ is accumulated into the mitochondrial matrix in proportion to ΔP, and its concentration in the suspension medium is monitored using a TPP^+ sensitive electrode. Aliquots of Ca^++ are then added to the reaction solution, with each addition causing a transient release of TPP^+ as the Ca^++ is taken into the mitochondria at the expense of ΔP. […] At this juncture, ΔP collapses and the mitochondrial TPP^+ is irreversibly released into the suspension medium. The amount of Ca^++ required to cause irreversible release of TPP^+ provides a quantitative measurement of mtPTP sensitivity.
To determine if the ANTs provide a regulatory function for the mtPTP, ANT-deficient and control liver mitochondria were loaded with TPP^+ and then Ca^++ was added in the presence or absence of various mtPTP effectors until the TPP^+ was irreversibly released. The relative levels of Ca^++ required for permeability transition were then compared.
The calcium sensitivity of the mtPTP was calculated from 10 nmol CaCl2 additions to a reaction vessel containing 1 mg of mitochondrial protein in 1.0 ml of 250 mM sucrose, 10 mM MOPS, 2 mM K2HPO4, pH 7.2, and 5 mM succinate. Irreversible release of TPP^+ from the mitochondria was indicative of mtPTP activation.

[2] = test system: mouse hepatocytes; experiment: Induction of apoptosis in primary hepatocytes, apoptotic nuclei by Hoechst 33258 staining; type: cell-based; details: ANT-deficient and ANT-control hepatocytes; agent alone; 12 h
Procedure: Primary hepatocytes from ANT-deficient and ANT-control mice were cultured on collagen-coated cover glasses and treated with Fas ligand and Actinomycin D. After 12 h, cells were stained with Hoechst 33258 and images were acquired with a Zeiss Axio-10 fluorescence microscope. Cells with chromatin condensation and nuclei fragmentation were counted as apoptotic.
Hepatocytes were isolated from 12 to 15 month old anesthetized mice, perfused in situ with collagenase-dispase medium (Invitrogen, Carlsbad, Calif.). The hepatocytes were gently released, filtered and cultured on collagen coated cover glasses or plates in Waymouth's MB-752/1 medium containing 27 mM NaHCO3, 2 mM L-glutamine, 10% fetal calf serum, 0.5 μg/ml insulin, 0.5 μg/ml transferrin, 0.5 ng/ml sodium selenate and 100 nM dexamethasone (49). […]
Fas ligand-TNFα+Actinomycin D induced apoptosis was monitored by detection of apoptotic nuclei by staining with 10 μg/ml of Hoechst 33258 (Molecular Probes, Eugene, Oreg.) (9). Br-A23187-induced cell death after 1 h treatment was monitored by measuring the percentage of lactate dehydrogenase (LDH) released into the culture medium as a percentage of the activity in a Triton X-100 total cell lysate.

[3] = test system: liver mitochondria; experiment: ADP stimulation of respiration in liver mitochondria (oxygen consumption, succinate); type: biochemical, mouse; details: liver mitochondria from Ant1−/−, Ant2fl/Y, Alb-Cre (ANT-deficient) animals
Procedure: FIGS. 6A and 6B show ANT1 and ANT2 expression and respiration of control and ANT-deficient liver mitochondria. Liver mitochondria were isolated from Ant1^−/−, Ant2^fl/Y (ANT-control) or Ant1^−/−, Ant2^fl/Y, Alb-cre (ANT-deficient) mice. FIG. 6A: Western blot analysis using antibodies against ANT1 (left) and ANT2 (right). Heart mitochondria were used as a positive control for the presence of ANT1. ANT1 and ANT2, 30 kDa. FIG. 6B: Oxygen consumption was measured using succinate as substrate in ANT-control (left) and ANT-deficient (right) mitochondria. MITOS, addition of 600 μg of mitochondrial protein. ADP, 125 nmol ADP; FCCP (uncoupler), 75 nM.
Respiration and oxidative phosphorylation enzyme activities were measured polarographically and spectrophotometrically (42). The membrane potential was calculated from the mitochondrial uptake of TPP^+ using a TPP^+ sensitive electrode (44-47). The mtPTP was examined in liver 10-week-old Ant1^−/− or +/+, Ant2^fl/Y, Alb-Cre +/− animals.

[4] = test system: mtPTP; details: ANT-deficient and ANT-control mitochondria; 1 μM FCCP in the presence of Ca++
Procedure: To determine if the mtPTP could still exist in the absence of ANT, we isolated mitochondria from livers of Ant1^−/−, Ant2^fl/Y, Alb-Cre (ANT-deficient) and Ant1^−/−, Ant2^fl/Y (ANT-control) mice. […] The opening of the pore was monitored by following mitochondrial swelling through decreased light scattering.
Mitochondria (1 mg protein) were incubated in 1.5 ml of the above reaction medium with 16.5 nmol CaCl2. After two minutes 0.1 uM ruthenium red was added followed by FCCP.

[5] = ANT-control (Ant1−/−, Ant2fl/Y) liver mitochondria
[6] = ANT-deficient (Ant1−/−, Ant2fl/Y, Alb-Cre) liver mitochondria

Row | Molecule | effect on Ca++ activation of the mtPTP (Ca++ required for permeability transition) [1, 5] | effect on Ca++ activation of the mtPTP (Ca++ required for permeability transition) [1, 6] | further results
1 | C=C1[C@@H]2CC[C@H]3[C@]4(C)C[C@H](O[C@@H]5O[C@H](CO)[C@@H](OS(=O)(=O)O)[C@H](OS(=O)(=O)O)[C@H]5OC(=O)CC(C)C)C[C@@H](C(=O)O)[C@H]4CC[C@]3(C2)[C@H]1O [ATR, atractyloside] | activated the mtPTP | no effect | 
2 | TNFα |  |  | induction of apoptosis [2]: did not induce apoptosis
3 | Cc1c2oc3c(C)ccc(C(=O)N[C@@H]4C(=O)N[C@H](C(C)C)C(=O)N5CCC[C@H]5C(=O)N(C)CC(=O)N(C)[C@@H](C(C)C)C(=O)O[C@@H]4C)c3nc-2c(C(=O)N[C@@H]2C(=O)N[C@H](C(C)C)C(=O)N3CCC[C@H]3C(=O)N(C)CC(=O)N(C)[C@@H](C(C)C)C(=O)O[C@@H]2C)c(N)c1=O [Actinomycin D] (I: T[dV]P[Sar][NMeV] / II: T[dV]P[Sar][NMeV]; ester I:1-I:C, II:1-II:C; linker I:N-II:N via Actinocin(9to1)) |  |  | induction of apoptosis [2]: did not induce apoptosis
4 | CN(C)C(=O)/N=N/C(=O)N(C)C [DIA, diamide] | activated the mtPTP | activated the mtPTP | 
5 | Nc1ncnc2c1ncn2[C@@H]1O[C@H](COP(=O)(O)OP(=O)(O)O)[C@@H](O)[C@H]1O [ADP, adenosine diphosphate] | strongly inhibited | no effect; also recorded: without effect | stimulation of mitochondrial respiration [3]: could not be stimulated
6 | CC(C)(C)OO [t-H2O2, Tert-butyl hydroperoxide] | activated the mtPTP | activated the mtPTP | 
7 | N#CC(C#N)=NNc1ccc(OC(F)(F)F)cc1 [FCCP, carbonyl cyanide p-(trifluoromethoxy)phenylhydrazone] |  |  | FCCP-induced mtPTP activation (mitochondrial swelling) [4]: responded equally well
